In patent publication US20090177280A1, “Implant With Multiple Coating” (priority 2005, published 2009):
Entries after “also recorded” stand apart in the source; their conditions may differ. Values belong to the compound of their own block, whether it stands above or below them.

Experiment: Release of rapamycin from spray-coated microporous stents (UV spectroscopy at 280 nm)
Assay type: physicochemical
Details: for effect of second drug on rapamycin release from the stent platform: 0.5% and 1.0% 17β estradiol valerate added to 1% rapamycin solution in ethanol
Protocol: Microporous stents are spray-coated by means of a unique stent-coating machine (Wessely et al, supra). Attachment of a drug-reservoir is required to supply one or multiple drugs of choice. Besides sirolimus (rapamycin) we included a second drug at different concentrations to examine whether release kinetics of the primary compound (e.g. sirolimus) could be altered. Released rapamycin from the stent platform were measured at distinctive time points as previously described (Wessely, supra) by means of UV spectroscopy at a wave length of 280 nm.
The experiment was carried out as Example 1 with the exception that 17β estradiol was used as second drug.
The experiment was carried out as Example 1 with the exception that rosiglitazone was used as second drug.
The experiment was carried out as Example 1 with the exception that probucol was used as second drug.

effect of second drug on rapamycin release from the stent platform (0.1%): substantially modulate rapamycin release | effect of second drug on rapamycin release from the stent platform (0.1%, listed as estradiolvalerat): retardation
Compound: CCCCC(=O)O[C@H]1CC[C@H]2[C@@H]3CCc4cc(O)ccc4[C@H]3CC[C@]12C [17β estradiol valerate]

effect of second drug on stent-based rapamycin release (multiplex coating with rapamycin (1%) and carvedilol (0.5%) in ethanol vs single coated rapamycin (1%)): clear retardation
Compound: COc1ccccc1OCCNCC(O)COc1cccc2[nH]c3ccccc3c12 (stereo not shown) [carvedilol]

Compound: CC(C)(Sc1cc(C(C)(C)C)c(O)c(C(C)(C)C)c1)Sc1cc(C(C)(C)C)c(O)c(C(C)(C)C)c1 [probucol, 4,4′-(isopropylidenedithio) bis(2,6-di-tert-butyl-phenol)]
effect of second drug on release of rapamycin from the stent (0.1%, 0.5% and 1.0% probucol added to 4% rapamycin solution in ethanol, polymer-free): protracts the release of rapamycin; also recorded: modifiable
